How the values were obtained:
Human betaherpesvirus 5 [1] = experiment: Cytotoxicity against Human cytomegalovirus (AD169) strain(HCMV); assay type: functional
Human betaherpesvirus 5 [2] = experiment: Antiviral activity against Human cytomegalovirus (AD169) strain(HCMV); assay type: functional, organism-based
Human betaherpesvirus 5 [3] = experiment: Antiviral activity against clinical isolates of human origin CMV-strainA; assay type: functional, organism-based
Human betaherpesvirus 5 [4] = experiment: Antiviral activity against clinical isolates of human origin CMV-strain B; assay type: functional, organism-based
Human betaherpesvirus 5 [5] = experiment: Antiviral activity against clinical isolates of human origin CMV-strainC; assay type: functional, organism-based

SMILES | IC50 (Human betaherpesvirus 5 [2]) [µM] | CC50 (Human betaherpesvirus 5 [1]) [µM] | IC50 (Human betaherpesvirus 5 [3]) [µM] | IC50 (Human betaherpesvirus 5 [4]) [µM] | IC50 (Human betaherpesvirus 5 [5]) [µM]
O=S1(=O)N=C(OCc2ccccc2)c2ccccc2N1Cc1ccccc1 | 7.9 | > 66 |  |  | 
O=C1c2ccccc2N(Cc2cccc(Cl)c2)S(=O)(=O)N1Cc1ccccc1 | 3.6 | > 60 |  |  | 
O=C1c2ccccc2N(Cc2ccc(Cl)cc2)S(=O)(=O)N1COCc1ccccc1 | 6.7 | > 56 |  |  | 
O=C1c2ccccc2N(Cc2ccccc2Cl)S(=O)(=O)N1COCc1ccccc1 | 18 | > 56 |  |  | 
O=C1c2ccccc2N(Cc2ccccc2)S(=O)(=O)N1Cc1ccc(Cl)cc1 | 6 | > 60 |  |  | 
O=C1c2ccccc2N(Cc2ccc(Cl)cc2)S(=O)(=O)N1Cc1ccccc1 | 3.6 | > 60 | 2.4 | 1.2 | 2.4
O=C1c2ccccc2N(Cc2ccccc2Cl)S(=O)(=O)N1Cc1ccccc1Cl | 3.6 | > 60 |  |  | 
Nc1nc2c(ncn2COC(CO)CO)c(=O)[nH]1 [GANCICLOVIR] | 5.9 | > 98 | 5.9 | 3.9 | 3.9

More lines, main results first:

IC50 (Human betaherpesvirus 5 [2]) [µM] | SMILES | CC50 (Human betaherpesvirus 5 [1]) [µM] | IC50 (Human betaherpesvirus 5 [3]) [µM] | IC50 (Human betaherpesvirus 5 [4]) [µM] | IC50 (Human betaherpesvirus 5 [5]) [µM]
4.8 | O=C1c2ccccc2N(Cc2ccccc2Cl)S(=O)(=O)N1Cc1ccccc1 | > 60 |  |  | 
34 | O=C1c2ccccc2N(COCc2ccccc2)S(=O)(=O)N1COCc1ccccc1 | > 57 |  |  | 
3.6 | O=C1c2ccccc2N(Cc2ccc(Cl)cc2)S(=O)(=O)N1Cc1ccc(Cl)cc1 | > 60 |  |  | 
5.2 | O=C1c2ccccc2N(Cc2ccccc2)S(=O)(=O)N1Cc1ccccc1 | > 66 |  |  | 
12.1 | O=C1c2ccccc2N(Cc2ccccc2)S(=O)(=O)N1Cc1ccccc1Cl | > 60 |  |  | 

Source: ChEMBL document CHEMBL1131869, “Chlorophenylmethyl benzothiadiazine dioxides derivatives: potent human cytomegalovirus inhibitors” (Bioorg Med Chem Lett, 1999)
